Measurements published in US20230127046A1, “G9a INHIBITOR” (RIKEN, priority 2019, published 2023).

These compounds were tested against T1, recombinant human G9a protein (Homo sapiens, UniProt Q96KQ7) (assay: G9a inhibitory activity test (ALPHA)). Conditions: biotinylated histone H3 peptide (1-21), SAM, read-out: Inhibitory activity (G9a IC50 value).
T1 construct: purchased BPS Bioscience Inc. #51001
T1 sequence (Q96KQ7 785-1210 limits assumed): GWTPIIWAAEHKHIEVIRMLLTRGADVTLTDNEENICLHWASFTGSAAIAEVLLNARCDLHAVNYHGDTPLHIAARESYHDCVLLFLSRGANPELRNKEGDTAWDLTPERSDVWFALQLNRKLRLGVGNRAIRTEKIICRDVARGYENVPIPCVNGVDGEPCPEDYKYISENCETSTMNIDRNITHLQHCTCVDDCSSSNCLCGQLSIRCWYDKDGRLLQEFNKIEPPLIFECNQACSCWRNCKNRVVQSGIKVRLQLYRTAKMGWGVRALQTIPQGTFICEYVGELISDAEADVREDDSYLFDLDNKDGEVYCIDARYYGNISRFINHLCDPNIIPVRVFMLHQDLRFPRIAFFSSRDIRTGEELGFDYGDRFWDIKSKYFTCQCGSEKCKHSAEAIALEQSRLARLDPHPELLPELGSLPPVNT
Format: biochemical
Description: The G9a inhibitory activity of each compound was evaluated by measuring the enzymatic activity of G9a by amplified luminescence proximity homogeneous assay (ALPHA). First, 7.5 μL of a dilution of recombinant human G9a protein (BPS Bioscience Inc., #51001) diluted to 0.05 to 0.1 nM with a Tris buffer solution (50 mM Tris-HCl [pH 9.0], 50 mM NaCl, 0.01% Tween-20, 1 mM DTT), and 0.5 μL of the test compound were added to each well of a 384-well microplate (AlphaPlate-384 Shallow Well, PerkinElmer, Inc., #6008359), mixed by vortex, and incubated at room temperature for 10 minutes. 500 nM biotinylated histone H3 peptide (1-21) (AnaSpec Inc., #61702) and 150 μM SAM (Sigma-Aldrich Co. LLC, #A7007) were mixed at 1:1 in advance, and 2 μL of the mixture was added to each well, mixed by vortex, and then incubated at room temperature for 1 hour. AlphaLISA anti-H3K9me2 acceptor beads (PerkinElmer, Inc., #AL117C) and AlphaScreen streptavidin donor beads (PerkinElmer, Inc., #6760002B) were each diluted with an epigenetic buffer (PerkinElmer, Inc., AlphaLISA Epigenetics Buffer Kit #AL008C) to a final concentration of […] after addition. These dilutions were added to the reaction solution in the dark and incubated at room temperature for 1 hour in the dark. Then, measurement was performed using the EnSpire Alpha plate reader (PerkinElmer, Inc., Waltham, Mass., USA). The G9a inhibitory activity of the test compound was calculated as a compound concentration necessary for suppressing G9a enzymatic activity by 50% (IC50 value), by determining the percent inhibition of the compound when the value of a control without the addition of the compound was defined as 0% and the value of a control without the addition of the enzyme was defined as 100%.
With COCc1ccc(NC(=O)C(CCC2CC2)NC(=O)c2[nH]c3c(c2C)C(=O)CC(C)(C)C3)cn1 (centres unmarked) [Example 1-60] the IC50 was ≥ 200 nM.
For Cc1ccc(NC(=O)C(CCC2CC2)NC(=O)c2[nH]c3c(c2C)C(=O)CC(C)(C)C3)cc1 (centres unmarked) [Example 1-61], the IC50 was 50 to 200 nM.
For Cc1c(C(=O)NC(CCC2CC2)C(=O)Nc2cccc(C#N)c2)[nH]c2c1C(=O)CC(C)(C)C2 (centres unmarked) [Example 1-62], the IC50 was 50 to 200 nM.
With COc1ccc(NC(=O)C(CCC2CC2)NC(=O)c2[nH]c3c(c2C)C(=O)CC(C)(C)C3)cc1 (centres unmarked) [Example 1-63] the IC50 was 50 to 200 nM.
With Cc1c(C(=O)NC(CCC2CC2)C(=O)N2CCc3cc(C#N)ccc32)[nH]c2c1C(=O)CC(C)(C)C2 (centres unmarked) [Example 1-64] the IC50 was ≥ 200 nM.
In the case of Cc1c(C(=O)NC(CCC2CC2)C(=O)Nc2ccc(SC(F)F)cc2)[nH]c2c1C(=O)CC(C)(C)C2 (centres unmarked) [Example 1-65], the IC50 is reported as ≥ 200 nM.
In the case of CCc1cc(C#N)ccc1NC(=O)C(CCC1CC1)NC(=O)c1[nH]c2c(c1C)C(=O)CC(C)(C)C2 (centres unmarked) [Example 1-66], the IC50 is reported as < 50 nM.
With Cc1c(C(=O)NC(CCC2CC2)C(=O)NCc2ccc(CN(C)C)cc2)[nH]c2c1C(=O)CC(C)(C)C2 (centres unmarked) [Example 1-67] the IC50 was < 50 nM.
For Cc1c(C(=O)NC(CCC2CC2)C(=O)NC2(c3ccc(C#N)cc3)CC2)[nH]c2c1C(=O)CC(C)(C)C2 (centres unmarked) [Example 1-69], the IC50 was ≥ 200 nM.
In the case of Cc1c(C(=O)NC(CCC2CC2)C(=O)Nc2ccc(O)nc2)[nH]c2c1C(=O)CC(C)(C)C2 (centres unmarked) [Example 1-70], the IC50 is reported as 50 to 200 nM.
For Cc1c(C(=O)NC(CCC2CC2)C(=O)Nc2ccc(OC3COC3)nc2)[nH]c2c1C(=O)CC(C)(C)C2 (centres unmarked) [Example 1-71], the IC50 was ≥ 200 nM.
CSc1ccc(NC(=O)C(CCC2CC2)NC(=O)c2[nH]c3c(c2C)C(=O)CC(C)(C)C3)cn1 (centres unmarked) [Example 1-72] was tested, and the IC50 was ≥ 200 nM.
In the case of Cc1c(C(=O)NC(CCC2CC2)C(=O)Nc2ccncc2)[nH]c2c1C(=O)CC(C)(C)C2 (centres unmarked) [Example 1-73], the IC50 is reported as ≥ 200 nM.
Work on Cc1c(C(=O)NC(CCC2CC2)C(=O)Nc2ccc(N(C)C)nc2)[nH]c2c1C(=O)CC(C)(C)C2 (centres unmarked) [Example 1-74] yielded an IC50 of 50 to 200 nM.
CCc1nc(C)ccc1NC(=O)C(CCC1CC1)NC(=O)c1[nH]c2c(c1C)C(=O)CC(C)(C)C2 (centres unmarked) [Example 1-75] was tested, and the IC50 was ≥ 200 nM.
With Cc1c(C(=O)NC(CCC2CC2)C(=O)N2CCc3cc(Br)ccc32)[nH]c2c1C(=O)CC(C)(C)C2 (centres unmarked) [Example 1-76] the IC50 was ≥ 200 nM.
In the case of Cc1ccc2c(c1)CCN2C(=O)C(CCC1CC1)NC(=O)c1[nH]c2c(c1C)C(=O)CC(C)(C)C2 (centres unmarked) [Example 1-77], the IC50 is reported as ≥ 200 nM.
For Cc1ccc2c(c1)N(C(=O)C(CCC1CC1)NC(=O)c1[nH]c3c(c1C)C(=O)CC(C)(C)C3)CC2 (centres unmarked) [Example 1-78], the IC50 was ≥ 200 nM.
In the case of CSc1ccccc1NC(=O)C(CCC1CC1)NC(=O)c1[nH]c2c(c1C)C(=O)CC(C)(C)C2 (centres unmarked) [Example 1-83], the IC50 is reported as < 50 nM.
For CCc1ccccc1NC(=O)C(CCC1CC1)NC(=O)c1[nH]c2c(c1C)C(=O)CC(C)(C)C2 (centres unmarked) [Example 1-84], the IC50 was < 50 nM.
For Cc1c(C(=O)NC(CCC2CC2)C(=O)Nc2ccc(OC3CCN(C)CC3)cc2)[nH]c2c1C(=O)CC(C)(C)C2 (centres unmarked) [Example 1-85], the IC50 was < 50 nM.
In the case of Cc1c(C(=O)NC(C(=O)Nc2ccc(OC3CCN(C)CC3)nc2)c2ccccc2)[nH]c2c1C(=O)CC(C)(C)C2 (centres unmarked) [Example 1-86], the IC50 is reported as ≥ 200 nM.
With O=C(NC(CCC1CC1)C(=O)Nc1ccc(OC2COC2)nc1)c1ccc(Nc2ccncc2)cc1 (centres unmarked) [Example 1-88] the IC50 was < 50 nM.
O=C(NC(CCC1CC1)C(=O)Nc1ccc(O)nc1)c1ccc(Nc2ccncc2)cc1 (centres unmarked) [Example 1-89] was tested, and the IC50 was < 50 nM.
For CCCCC(NC(=O)c1[nH]c2c(c1C)C(=O)CC(C)(C)C2)C(=O)Nc1cccc2[nH]ccc12 (centres unmarked) [Example 1-90], the IC50 was ≥ 200 nM.
For CCCCC(NC(=O)c1[nH]c2c(c1C)C(=O)CC(C)(C)C2)C(=O)Nc1ccc2[nH]ncc2c1 (centres unmarked) [Example 1-91], the IC50 was ≥ 200 nM.
In the case of CCCCC(NC(=O)c1[nH]c2c(c1C)C(=O)CC(C)(C)C2)C(=O)NCc1cccc(N2CCN(C)CC2)c1 (centres unmarked) [Example 1-92], the IC50 is reported as ≥ 200 nM.
Work on CCCCC(NC(=O)c1[nH]c2c(c1C)C(=O)CC(C)(C)C2)C(=O)Nc1cccc2c1CCCC2 (centres unmarked) [Example 1-93] yielded an IC50 of 50 to 200 nM.
With CCCCC(NC(=O)c1[nH]c2c(c1C)C(=O)CC(C)(C)C2)C(=O)Nc1cccc2cnccc12 (centres unmarked) [Example 1-94] the IC50 was ≥ 200 nM.
In the case of CCCCC(NC(=O)c1[nH]c2c(c1C)C(=O)CC(C)(C)C2)C(=O)Nc1ccc2[nH]c(C)cc2c1 (centres unmarked) [Example 1-95], the IC50 is reported as ≥ 200 nM.
In the case of CCCCC(NC(=O)c1[nH]c2c(c1C)C(=O)CC(C)(C)C2)C(=O)Nc1ccc2[nH]ccc2c1 (centres unmarked) [Example 1-96], the IC50 is reported as ≥ 200 nM.
With CCCCC(NC(=O)c1[nH]c2c(c1C)C(=O)CC(C)(C)C2)C(=O)Nc1nn(CC)c2ccccc12 (centres unmarked) [Example 1-97] the IC50 was ≥ 200 nM.
In the case of CCCCC(NC(=O)c1[nH]c2c(c1C)C(=O)CC(C)(C)C2)C(=O)Nc1ccc(CN2CCCC2)cc1 (centres unmarked) [Example 1-98], the IC50 is reported as < 50 nM.
With CCCCC(NC(=O)c1[nH]c2c(c1C)C(=O)CC(C)(C)C2)C(=O)Nc1cccc(CN2CCOCC2)c1 (centres unmarked) [Example 1-99] the IC50 was ≥ 200 nM.
For CCCCC(NC(=O)c1[nH]c2c(c1C)C(=O)CC(C)(C)C2)C(=O)Nc1ccc2[nH]cc(CN(C)C)c2c1 (centres unmarked) [Example 1-100], the IC50 was < 50 nM.
CCCCC(NC(=O)c1[nH]c2c(c1C)C(=O)CC(C)(C)C2)C(=O)Nc1ccc2cn[nH]c2c1 (centres unmarked) [Example 1-101] was tested, and the IC50 was ≥ 200 nM.
With CCCCC(NC(=O)c1[nH]c2c(c1C)C(=O)CC(C)(C)C2)C(=O)Nc1ccccc1CN1CCN(C)CC1 (centres unmarked) [Example 1-102] the IC50 was ≥ 200 nM.
For CCCCC(NC(=O)c1[nH]c2c(c1C)C(=O)CC(C)(C)C2)C(=O)Nc1ccc(N2CCN(C)CC2)cc1 (centres unmarked) [Example 1-103], the IC50 was ≥ 200 nM.
In the case of CCCCC(NC(=O)c1[nH]c2c(c1C)C(=O)CC(C)(C)C2)C(=O)N[C@@H]1CCCc2ccccc21 (some centres unmarked) [Example 1-104], the IC50 is reported as 50 to 200 nM.
CCCCC(NC(=O)c1[nH]c2c(c1C)C(=O)CC(C)(C)C2)C(=O)Nc1cccc(-c2ccccn2)c1 (centres unmarked) [Example 1-105] was tested, and the IC50 was ≥ 200 nM.
In the case of CCCCC(NC(=O)c1[nH]c2c(c1C)C(=O)CC(C)(C)C2)C(=O)Nc1cccc(C(=O)OC)c1C (centres unmarked) [Example 1-106], the IC50 is reported as ≥ 200 nM.
CCCCC(NC(=O)c1[nH]c2c(c1C)C(=O)CC(C)(C)C2)C(=O)Nc1cccnc1C (centres unmarked) [Example 1-107] was tested, and the IC50 was ≥ 200 nM.
For CCCCC(NC(=O)c1[nH]c2c(c1C)C(=O)CC(C)(C)C2)C(=O)Nc1cccc(CN(CC)CC)c1 (centres unmarked) [Example 1-108], the IC50 was < 50 nM.
With CCCCC(NC(=O)c1[nH]c2c(c1C)C(=O)CC(C)(C)C2)C(=O)Nc1cc(OC)c(OC)c(OC)c1 (centres unmarked) [Example 1-109] the IC50 was ≥ 200 nM.

Same assay, conditions: read-out: Inhibitory activity (G9a IC50)
CCCCC(NC(=O)c1[nH]c2c(c1C)C(=O)CC(C)(C)C2)C(=O)Nc1ccc(N2CCCN(C)CC2)cc1 (centres unmarked) [Example 1-110] was tested, and the IC50 was 50 to 200 nM.
CCCCC(NC(=O)c1[nH]c2c(c1C)C(=O)CC(C)(C)C2)C(=O)N[C@@H]1CCc2ccccc21 (some centres unmarked) [Example 1-111] gave an IC50 of 50 to 200 nM.
With CCCCC(NC(=O)c1[nH]c2c(c1C)C(=O)CC(C)(C)C2)C(=O)NC1CCC(N(C)C)CC1 (centres unmarked) [Example 1-112] the IC50 was ≥ 200 nM.
For CCCCC(NC(=O)c1[nH]c2c(c1C)C(=O)CC(C)(C)C2)C(=O)Nc1cccc(CN2CCCC2)c1 (centres unmarked) [Example 1-113], the IC50 was < 50 nM.
With CCCCC(NC(=O)c1[nH]c2c(c1C)C(=O)CC(C)(C)C2)C(=O)Nc1cc(NC(C)=O)ccc1OC (centres unmarked) [Example 1-114] the IC50 was ≥ 200 nM.
CCCCC(NC(=O)c1[nH]c2c(c1C)C(=O)CC(C)(C)C2)C(=O)Nc1cccc2c1CCN(C(=O)OC(C)(C)C)C2 (centres unmarked) [Example 1-115] was tested, and the IC50 was ≥ 200 nM.
With Cc1cccc2c1CCN2C(=O)C(CCC1CC1)NC(=O)c1[nH]c2c(c1C)C(=O)CC(C)(C)C2 (centres unmarked) [Example 1-116] the IC50 was ≥ 200 nM.
In the case of Cc1c(C(=O)NC(CCC2CC2)C(=O)N2CCc3c(O)cccc32)[nH]c2c1C(=O)CC(C)(C)C2 (centres unmarked) [Example 1-117], the IC50 is reported as ≥ 200 nM.
With Cc1c(C(=O)NC(CCC2CC2)C(=O)N2CCc3c(OCCCN4CCCCC4)cccc32)[nH]c2c1C(=O)CC(C)(C)C2 (centres unmarked) [Example 1-118] the IC50 was ≥ 200 nM.
In the case of Cc1c(C(=O)NC(CCC2CC2)C(=O)N2CCc3c(OCCCN(C)C)cccc32)[nH]c2c1C(=O)CC(C)(C)C2 (centres unmarked) [Example 1-119], the IC50 is reported as ≥ 200 nM.
For Cc1c(C(=O)NC(CCC2CC2)C(=O)N2CCc3c(OCCN4CCCC4)cccc32)[nH]c2c1C(=O)CC(C)(C)C2 (centres unmarked) [Example 1-120], the IC50 was 50 to 200 nM.
For Cc1c(C(=O)NC(CCC2CC2)C(=O)N2CCc3c(OCC4CCN(C)CC4)cccc32)[nH]c2c1C(=O)CC(C)(C)C2 (centres unmarked) [Example 1-121], the IC50 was ≥ 200 nM.
